Laboratory results reported in patent US20240053326A1, “TESTING COLON CANCER DRUGS FOR IMMUNOMODULATORY EFFECTS” (BROWN UNIVERSITY, priority 2022, published 2024).

Tested on: HCT-116, HT-29, and KM12C colon cancer cell lines
Experiment: Cytokinome (cytokine, chemokine, growth factor) profiling of cell culture supernatant after small-molecule treatment, Luminex 200
Type: cell-based, human
Details: for decreases in VEGF: 48 h treatment at IC-10 to IC-90, slope of linear regression, count of drug/cell line groups (HCT-116, HT-29, KM12C) with analyte among top five most down-regulated
Description: We designed a high-throughput custom multiplex cytokine, chemokine, and growth factor profiling panel based on both pro- and anti-inflammatory markers, as well as cytokines and chemokines involved in the recruitment and activation of immune cells such as natural killer (NK) and T cells. Cell lines were treated with the drug panel and cell culture supernatants were analyzed using Luminex 200 technology (FIG. 2). Cell lines were treated at differing concentrations (IC-10, IC-30, IC-50, IC-70, and IC-90) to determine dose-response effects for each small-molecule. It is important to emphasize that the panel was designed to analyze soluble factors that are secreted or shed by tumor cells post-treatment with drug.
Cells were plated at 3.5×10^4 cells in a 48 well plate (Thermo Fisher Scientific, Waltham, MA, USA) in complete medium and incubated at 37° C. with 5% CO2. At 24 hours after plating, almost all the tumor cells were adherent to the bottom of the flask and the complete medium was replaced with drug-containing medium. Subsequently, the culture supernatants were collected after 48 hours of incubation and were frozen at −80° C. until the measurement of cytokines was performed. The day of analysis, samples were thawed and centrifuged to remove cellular debris.
An R&D systems Human Premixed Multi-Analyte Kit (R&D Systems, Inc., Minneapolis, MN) was run on a Luminex 200 Instrument (LX200-XPON-RUO, Luminex Corporation, Austin, TX) according to the manufacturer's instructions. Cell culture supernatant levels of TNF-alpha, IL-6, IL-8/CXCL8, Ferritin, IFN-beta, IL-10, CCL2/JE/MCP-1, VEGF, CXCL13/BLC/BCA-1, IFN-gamma, CCL20/MIP-3 alpha, CCL3/MIP-1 alpha, CCL22/MDC, CCL4/MIP-1 beta, IL-4, IL-17/IL-17a, TRAIL R2/TNFRSF10B, GM-CSF, CXCL5/ENA-78, CXCL9/MIG, G-CSF, CXCL11/I-TAC, Granzyme B, CCL5/RANTES, Prolactin, IFN-alpha, CXCL14/BRAK, IL-12/IL-23 p40, CXCL10/IP-10/CRG2, CCL7/MCP-3/MARC, IL-7, CCL8/MCP-2, TRANCE/TNFSF11/RANK L, IL-15, TRAIL R3/TNFRSF10C, CCL11/Eotaxin, IL-18/IL-1F4, TRAIL/TNFSF10, IL-21, and C-Reactive Protein/CRP were measured.
A quantitative analysis with 6 standards and a minimum of 50 counts per bead region was used with the Luminex to generate analyte values reported as picograms/milliliter (pg/mL). Cytokine concentrations less than the lower limit of detection for each particular cytokine were recoded as zero. Cytokines without detectable expression levels were removed from further analysis of each cell line. Each drug was tested at different inhibitory concentrations (IC-10, IC-30, IC-50, IC-70, and IC-90), and these varying concentrations were used to measure a dose-response effect on cytokine expression. Cytokine dose-response effect was modeled by simple linear regression for each drug. The slopes of the linear regressions were compared. Data analysis and visualization were generated using R (R Development Core Team, 2020).

[1] = 48 h, IC-10 to IC-90, regression slope, count of drug/cell line groups, top five most down-regulated
[2] = 48 h, IC-10 to IC-90, regression slope, count of drug/cell line groups, top five most up-regulated

Row | SMILES | decreases in CCL3/MIP-1 alpha [1] | decreases in CXCL14/BRAK [1] | increases in CXCL5/ENA-78 [2] | increases in IL-8/CXCL8 [2] | increases in Prolactin [2] | decreases in VEGF | decreases in CXCL9/MIG [1] | increases in CXCL14/BRAK [2] | increases in sTRAIL-R3 [2] | decreases in IL-8/CXCL8 [1] | increases in CCL5/RANTES [2] | increases in IL-18/IL-1F4 [2] | decreases in CXCL5/ENA-78 [1] | decreases in CXCL13/BLC/BCA-1 [1]
1 | COc1ccc(CN2C3CC2CN(c2ccc(-c4cc(OCC(C)(C)O)cn5ncc(C#N)c45)cn2)C3)cn1 [Selpercatinib] | 2 out of 3 | 2 out of 3 | 3 out of 3 | 2 out of 3 | 2 out of 3 | 3 out of 3 | – | – | – | – | – | – | – | –
2 | Cn1cc(C2=C(c3coc4ccc(F)cc34)C(=O)NC2=O)c2cc3c(cc21)OCO3 [9-ING-41] | 2 out of 3 | – | – | 2 out of 3 | – | 3 out of 3 | 3 out of 3 | 3 out of 3 | 2 out of 3 | – | – | – | – | –
3 | O=C(Nc1cnn2ccc(N3CCC[C@@H]3c3cc(F)ccc3F)nc12)N1CC[C@H](O)C1 [Larotrectinib] | 2 out of 3 | – | – | – | 2 out of 3 | 3 out of 3 | 3 out of 3 | – | – | 2 out of 3 | 2 out of 3 | 2 out of 3 | – | –
4 | CNC(=O)c1cc(Oc2ccc(NC(=O)Nc3ccc(Cl)c(C(F)(F)F)c3)c(F)c2)ccn1 [Regorafenib] | 2 out of 3 | – | – | – | 2 out of 3 | 3 out of 3 | 3 out of 3 | 2 out of 3 | – | 3 out of 3 | – | – | 2 out of 3 | –
5 | C[C@@H](Oc1cc(-c2cnn(C3CCNCC3)c2)cnc1N)c1c(Cl)ccc(F)c1Cl [Crizotinib] | – | – | – | 2 out of 3 | 2 out of 3 | 3 out of 3 | 2 out of 3 | 2 out of 3 | – | – | – | – | – | 2 out of 3
